According to patent publication US20080167461A1, “Process for Preparing 3,6-Dichloropyridazine-1-Oxide” (SANKYO AGRO COMPANY, LIMITED, priority 2005, published 2008):

Assays:
Cyperus serotinus = test: Treatment prior to germination of rice paddy weeds (flooding soil treatment, pot test); format: in vivo; conditions: dose 10 g/a; wettable powder diluted with water, treated 3 days after transplant under flooding; evaluated 25 days after treatment
From the text: (§1) Rice paddy soil was filled into a 1/10,000a pot, followed by mixing seeds of dormancy awakening Echinochloa oryzicola and Scirpus joncoides, and annual broadleaf weeds (Lindernia spp. and Rotala indica) in 1 cm of the surface layer of soil. In addition, Cyperus serotinus tubers subjected to accelerated germination were planted, followed by transplanting rice seedlings at the 2.2 leaf stage and growing under flooding conditions in a greenhouse. Three days after transplant, a predetermined dose of the wettable powder prepared according to Reference Example 2 was diluted with water, the soil was treated with a spraying solution thereof under flooding conditions and herbicidal effects and chemical damage to the transplanted rice plants were measured according to the evaluation criteria shown below 25 days after treatment.
(§2) 0: Growth inhibition rate 0 to 10%
(§3) 1: Growth inhibition rate 11 to 30%
(§4) 2: Growth inhibition rate 31 to 50%
(§5) 3: Growth inhibition rate 51 to 70%
(§6) 4: Growth inhibition rate 71 to 90%
(§7) 5: Growth inhibition rate 91 to 100%

Echinochloa oryzicola = test: as above; format: in vivo; conditions: dose 10 g/a; wettable powder diluted with water, treated 3 days after transplant under flooding; evaluated 25 days after treatment
From the text: as §1, §2, §3, §4, §5, §6, §7

Scirpus joncoides = test: as above; format: in vivo; conditions: dose 10 g/a; wettable powder diluted with water, treated 3 days after transplant under flooding; evaluated 25 days after treatment
From the text: as §1, §2, §3, §4, §5, §6, §7

[1] = test system: annual broadleaf weeds (Lindernia spp. and Rotala indica); test: as above; format: in vivo; conditions: dose 10 g/a; wettable powder diluted with water, treated 3 days after transplant under flooding; evaluated 25 days after treatment
From the text: as §1, §2, §3, §4, §5, §6, §7

rice plants = test: Chemical damage to transplanted rice plants (flooding soil treatment, pot test); format: in vivo
From the text: as §1, §2, §3, §4, §5, §6, §7

[2] = test system: dominant weeds of rice paddies; test: Herbicidal activity in rice paddies, flooding soil treatment before or after weed germination (general statement); format: in vivo
From the text: The compound synthesized in Reference Example 1 has herbicidal action, and can be used as a herbicide.

For Cc1cccc(C)c1Oc1nnc(Cl)cc1O [Reference Example 1, 6-Chloro-3-(2,6-dimethylphenoxy)-4-pyridazinol], the “herbicidal activity (growth inhibition grade) against Cyperus serotinus” value (Cyperus serotinus) was 5 (Growth inhibition rate 91 to 100%), the “herbicidal activity (growth inhibition grade) against Echinochloa oryzicola” value (Echinochloa oryzicola) was 2 (Growth inhibition rate 31 to 50%) and the “herbicidal activity (growth inhibition grade) against Scirpus joncoides” value (Scirpus joncoides) was 5 (Growth inhibition rate 91 to 100%). For the same compound, the “herbicidal activity (growth inhibition grade) against broadleaf weeds” value [1] was 5 (Growth inhibition rate 91 to 100%), the “chemical toxicity with respect to rice” value (rice plants; flooding soil treatment before or after weed germination, general statement) was “without demonstrating problems in terms of chemical toxicity” and the “activity against rice plants (chemical damage grade)” value (rice plants; transplanted rice seedlings (2.2 leaf stage), dose 10 g/a, evaluated 25 days after treatment) was 0 (Growth inhibition rate 0 to 10%). For the same compound, the “herbicidal activity against dominant weeds of rice paddies” value [2] was “demonstrates herbicidal activity” and the melting point was 214 to 215 °C.
